Test results from paper PMC10361207, “Cannabinoid and Opioid Receptor Affinity and Modulation of Cancer-Related Signaling Pathways of Machaeriols and Machaeridiols from Machaerium Pers” (Molecules, 2023).
Converted amounts (≈) assume the structure as drawn. “Also recorded” adds a separate entry of the source.

Columns and labels:
[1] = test system: NF-κB; assay: Luciferase reporter assay, NF-κB, HeLa; format: cell-based; settings: Homo sapiens; HeLa cells; inducer PMA; dash: not inhibited by more than 40% at 50 µmol/L
Experimental: (§1) Hela cells (or T98G cells) from ATCC were plated in white opaque 384-well plates at a density of 4300 cells/well in 30 µL of growth medium (DMEM with 10% FBS and 1% Pen/Strep). The next day, the medium was aspirated and replaced with DMEM containing 1% FBS. The cells were transfected with respective plasmids using X-tremeGENE HP DNA transfection reagent (Roche). After 24 h of transfection, the test agents were added to the transfected cells, followed 30 min later by an inducing agent: interleukin 6 (IL-6) for Stat3, TGF-β for Smad, m-wnt3a for Wnt and PMA for AP-1, NF-κB, E2F, Myc, ETS, Notch and Hedgehog. No inducer was added for FoXO and pTK. After 4 h or 6 h of induction, the cells were lysed via the addition of the One-Glo luciferase assay system (Promega; Madison, WI). The light output was detected in a GloMax®-Multi+ Detection System with Instinct® Software (Promega E 8051). This luciferase assay determines if the test agent is able to inhibit the activation of cancer-related signaling pathways. In the case of FoxO, the enhanced luciferase activity via the test agent was assessed.

[2] = target: T1, δ opioid receptor (Homo sapiens, UniProt P41143); assay: Competitive radioligand binding assay, δ opioid; settings: for inhibition at 10 µM: [3H]-enkephalin (DPDPE), read-out: Percent displacement, Δ; for Ki: NA = not active, read-out: Δ Ki ± SEM
T1 construct: host or cells: HEK293, stably transfected; membranes
Experimental: (§2) HEK293 cells stably transfected with δ, κ and μ opioid subtypes were a generous gift from Roth Laboratories (University of North Carolina at Chapel Hill, N.C., USA). CB and opioid cells were maintained as previously described.
(§3) Membranes were purified by first washing the cells with cold PBS and scraping the cells into cold 50 mM Tris-HCl, pH 7.4 buffer, which was centrifuged at 5200× g for 10 min at 4 °C; next, the supernatant was discarded, and the pellet was washed with more Tris-HCl buffer, homogenized via a Sonic Dismembrator (Fisher Scientific, Pittsburgh, PA, USA) and then centrifuged at 24,000× g for 40 min at 4 °C. Finally, the pellet was re-suspended in cold 50 mM Tris-HCl buffer, aliquoted into 2 mL vials and stored at −80 °C. The total membrane protein concentration was measured using a Pierce BCA Protein Assay Kit (Thermo Scientific, Rockford, IL, USA) as per the manufacturer’s protocol.
(§4) Cannabinoid and opioid competitive radioligand binding assays were performed as previously described. Saturation experiments were performed for all the receptors to determine the receptor concentration and radioligand dissociation constant (Kd) for the membrane. Percent displacements were evaluated for all the cannabinoid and opioid subtypes with a triplicate of a fixed concentration (10 µg/mL for extracts and fractions and 10 μM for purified compounds). […] Control/test compounds were dissolved in DMSO at 10 μg/mL for extracts and fractions and 10 μM for purified compounds. […] The percent displacement was calculated to represent the ability of the samples to displace the radioligand binding for a given cannabinoid or opioid receptor subtype.
(§5) The percent displacement was calculated as follows: 100−binding of compound−nonspecific binding/specific binding×100
(§6) The competitive binding assays were performed using 12 serial dilutions of each compound ranging from 0.002 to 300 μM (control compounds were serially diluted from 10 μM to 0.06 nM). The cannabinoid assays were incubated for 90 min at 37 °C with gentle agitation. The opioid assays were incubated for 60 min at room temperature. Bound radioligands were collected on GF/C (cannabinoid) or GF/B plates (opioid) and washed 10 times with ice-cold 50 mM Tris-HCl (pH 7.4)/0.1% BSA (cannabinoid) or ice-cold 50 mM Tris-HCl (pH 7.4) (opioid). Radiodetection was measured with 50 µL (cannabinoid) or 25 µL (opioid) of MicroScint^TM-20 on a TopCount NXT HTS Microplate Scintillation Counter (PerkinElmer, Waltham, MA, USA). The IC50 and Ki values were calculated via a non-linear curve fit model using GraphPad Prism 5.0 software (GraphPad Software, Inc., San Diego, CA, USA). Each compound was tested in triplicate unless stated otherwise.

[3] = test system: AP-1; assay: Luciferase reporter assay, AP-1, HeLa; format: cell-based, human; settings: Homo sapiens, read-out: IC50, Ap-1 (PMA)
Experimental: as §1

[4] = test system: FoxO; assay: Luciferase reporter assay, FoxO, HeLa; format: cell-based; settings: Homo sapiens; HeLa cells; no inducer; dash: no activity detected; read-out: IC50, FoxO (None)
Experimental: as §1

[5] = test system: Myc; assay: Luciferase reporter assay, Myc, HeLa; format: cell-based; settings: Homo sapiens; HeLa cells; inducer PMA; dash: not inhibited by more than 40% at 50 µmol/L
Experimental: as §1

[6] = target: T2, μ opioid receptor (Homo sapiens, UniProt P35372); assay: biochemical; format: binding; settings: for Percent displacement, µ: 10 μM, [3H]-DAMGO; for Ki: NA = not active, read-out: μ Ki ± SEM
T2 construct: host or cells: HEK293, stably transfected; membranes
Experimental: as §2, §3, §4, §5, §6

[7] = test system: SK-MEL, KB, BT-549, SK-OV-3, HeLa, LLC-PK1 and Vero cells; assay: Cytotoxicity, summary over the cell line panel; format: cell-based; settings: highest tested concentration of 50 µg/mL; most of the cells
Experimental: (§7) In vitro cytotoxic activity was determined against five human cancer cell lines—malignant melanoma (SK-MEL), epidermal carcinoma oral (KB), ductal carcinoma breast (BT-549), ovary carcinoma (SKOV-3) and cervical (HeLa) cancer cells—and two non-cancerous kidney cell lines (LLC-PK1 and Vero). All cell lines were obtained from the American Type Culture Collection (ATCC, Rockville, MD, USA). Each assay was performed in 96-well tissue culture-treated microplates. The cells were seeded at a density of 25,000 cells/well and incubated for 24 h. Samples at different concentrations were added, and the cells were incubated again for 48 h. At the end of the incubation, the cell viability was determined using Neutral Red dye according to a modification of the procedure used by Borenfreund et al.. IC50 values were determined from dose–response curves of the percent growth inhibition against test concentrations. Doxorubicin was used as a positive control, while DMSO was used as the negative (vehicle) control.

[8] = test system: Hedgehog; assay: Luciferase reporter assay, Hedgehog, HeLa; format: cell-based, human; settings: Homo sapiens; HeLa cells; inducer PMA; dash: not inhibited by more than 40% at 50 µmol/L
Experimental: as §1

[9] = test system: ETS; assay: Luciferase reporter assay, ETS, HeLa; format: cell-based, human; settings: Homo sapiens; HeLa cells; inducer PMA; dash: not inhibited by more than 40% at 50 µmol/L
Experimental: as §1

[10] = test system: Notch; assay: Luciferase reporter assay, Notch, HeLa; format: cell-based; settings: Homo sapiens; HeLa cells; inducer PMA; dash: not inhibited by more than 40% at 50 µmol/L
Experimental: as §1

[11] = test system: cannabinoid receptor 1 (CB1 receptor); settings: earlier studies; cited from earlier work
[12] = target: T3, CB2 receptor (Homo sapiens, UniProt P34972); assay: Competitive radioligand binding assay, CB2; settings: for Percent displacement, CB2: 10 μM, [3H]-CP55,940; for Ki: * tested up to solubility limit, conc. at 33.3 μM and above precipitated, read-out: CB2 Ki ± SEM
T3 construct: expressed in transfected cells; host or cells: HEK293 (ATCC), stably transfected; membranes
Experimental: as §2, §3, §4, §5, §6

[13] = test system: Stat3; assay: Luciferase reporter assay, Stat3, HeLa; format: cell-based, human; settings: Homo sapiens; HeLa cells; inducer IL6; dash: not inhibited by more than 40% at 50 µmol/L
Experimental: as §1

[14] = test system: Smad2/3; assay: Luciferase reporter assay, Smad2/3, HeLa; format: cell-based, human; settings: Homo sapiens; HeLa cells; inducer TGF-beta; dash: not inhibited by more than 40% at 50 µmol/L
Experimental: as §1

[15] = test system: Wnt; assay: Luciferase reporter assay, Wnt, HeLa; format: cell-based; settings: Homo sapiens; HeLa cells; inducer m-wnt3a; dash: not inhibited by more than 40% at 50 µmol/L
Experimental: as §1

[16] = Cytotoxicity, Neutral Red, SK-MEL; format: cell-based; settings: human, SK-MEL malignant melanoma cells, Na = not active up to 50 µg/mL
Experimental: as §7

[17] = test system: E2F; assay: Luciferase reporter assay, E2F, HeLa; format: cell-based, human; settings: Homo sapiens, HeLa, read-out: IC50, E2F (PMA)
Experimental: as §1

[18] = target: T4, CB1 receptor (Homo sapiens, UniProt P21554); assay: Competitive radioligand binding assay, CB1; settings: for Percent displacement, CB1: 10 μM, [3H]-CP55,940
T4 construct: expressed in transfected cells; host or cells: HEK293 (ATCC), stably transfected; membranes
Experimental: as §2, §3, §4, §5, §6

[19] = Cytotoxicity, Neutral Red, KB; format: cell-based; settings: human, KB epidermal carcinoma (oral) cells, Na = not active up to 50 µg/mL
Experimental: as §7

[20] = Solubility in aqueous assay buffer; settings: aqueous buffer of the radioligand binding assay
[21] = Cytotoxicity, Neutral Red, BT-549; format: cell-based; settings: human, BT-549 breast ductal carcinoma cells, Na = not active up to 50 µg/mL
Experimental: as §7

T1 sequence (P41143 whole entry): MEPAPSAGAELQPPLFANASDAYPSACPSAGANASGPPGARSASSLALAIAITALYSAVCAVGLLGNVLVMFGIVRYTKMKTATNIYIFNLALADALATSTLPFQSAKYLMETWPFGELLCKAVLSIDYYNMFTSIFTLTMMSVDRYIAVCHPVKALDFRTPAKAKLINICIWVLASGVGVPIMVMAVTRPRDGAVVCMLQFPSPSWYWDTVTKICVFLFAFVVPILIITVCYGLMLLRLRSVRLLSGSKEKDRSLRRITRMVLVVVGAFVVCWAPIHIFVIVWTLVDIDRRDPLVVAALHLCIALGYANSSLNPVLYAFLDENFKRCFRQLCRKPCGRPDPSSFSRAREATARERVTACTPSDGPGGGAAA
T3 sequence (P34972 whole entry): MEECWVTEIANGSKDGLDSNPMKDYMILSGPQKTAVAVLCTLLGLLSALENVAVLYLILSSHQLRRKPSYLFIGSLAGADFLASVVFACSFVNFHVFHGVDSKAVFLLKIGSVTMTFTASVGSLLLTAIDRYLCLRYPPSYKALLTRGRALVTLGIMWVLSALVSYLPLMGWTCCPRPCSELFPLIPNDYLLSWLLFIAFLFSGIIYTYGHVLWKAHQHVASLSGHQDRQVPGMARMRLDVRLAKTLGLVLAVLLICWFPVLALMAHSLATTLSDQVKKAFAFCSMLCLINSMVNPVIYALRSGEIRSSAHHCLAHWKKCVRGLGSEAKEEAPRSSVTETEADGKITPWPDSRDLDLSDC
T2 sequence (P35372 whole entry): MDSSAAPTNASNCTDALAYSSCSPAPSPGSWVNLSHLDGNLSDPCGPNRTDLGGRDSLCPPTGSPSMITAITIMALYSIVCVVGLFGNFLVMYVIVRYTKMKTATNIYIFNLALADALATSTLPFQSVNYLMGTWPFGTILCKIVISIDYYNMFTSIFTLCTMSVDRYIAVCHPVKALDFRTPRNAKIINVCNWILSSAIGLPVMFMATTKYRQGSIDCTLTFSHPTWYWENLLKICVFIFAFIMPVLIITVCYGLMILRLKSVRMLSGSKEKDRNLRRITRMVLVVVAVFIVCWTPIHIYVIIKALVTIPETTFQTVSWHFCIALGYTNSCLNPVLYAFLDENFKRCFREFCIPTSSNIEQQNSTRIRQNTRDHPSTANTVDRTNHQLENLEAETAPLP
T4 sequence (P21554 whole entry): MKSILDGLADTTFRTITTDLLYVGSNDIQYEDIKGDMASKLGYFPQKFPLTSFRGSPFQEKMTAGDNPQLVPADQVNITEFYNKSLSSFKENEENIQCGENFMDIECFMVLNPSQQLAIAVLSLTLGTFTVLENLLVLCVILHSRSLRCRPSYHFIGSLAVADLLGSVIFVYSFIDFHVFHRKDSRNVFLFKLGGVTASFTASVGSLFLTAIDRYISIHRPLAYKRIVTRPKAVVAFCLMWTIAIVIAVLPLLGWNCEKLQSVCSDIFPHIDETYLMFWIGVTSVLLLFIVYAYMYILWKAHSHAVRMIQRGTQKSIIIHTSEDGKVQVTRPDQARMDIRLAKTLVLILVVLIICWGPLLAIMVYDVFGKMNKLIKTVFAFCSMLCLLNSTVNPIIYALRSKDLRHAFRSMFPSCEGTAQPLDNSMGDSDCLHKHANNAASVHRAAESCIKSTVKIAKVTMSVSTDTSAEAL

| SMILES | IC50 [1] [µM] | inhibition at 10 µM [2] [%] | IC50 [3] [µM] | IC50 [4] [µM] | IC50 [5] [µM] | Percent displacement, µ [6] [%] | Cytotoxicity (in words) [7] | IC50 [8] [µM] | IC50 [9] [µM] | IC50 [10] [µM] | Affinity for CB1 (in words) [11] | Percent displacement, CB2 [12] [%] | IC50 [13] [µM] | IC50 [14] [µM] | IC50 [15] [µM] | IC50 at 48 h [16] [µg/mL] | IC50 [17] [µM] | Percent displacement, CB1 [18] [%] | Ki [12] [µM] | Ki [2] [µM] | further results |
| --- | --- | --- | --- | --- | --- | --- | --- | --- | --- | --- | --- | --- | --- | --- | --- | --- | --- | --- | --- | --- | --- |
| C[C@H]1CC[C@H]2[C@H](C1)c1c(O)cc(-c3cc4ccccc4o3)cc1OC2(C)C [compound 2, machaeriol B] | 8.4 | 61.7 | 10 | > 50 | 7.7 | 37.6 | inactive | 6.9 | 9.5 | 7.3 | insignificant affinity; also recorded: did not show any affinity | 13.7 | 11.3 | 11 | 9.1 | > 50 | 8.8 | – | – | – | – |
| C[C@H]1CC[C@H]2[C@H](C1)c1c(O)cc(/C=C/c3ccccc3)cc1OC2(C)C [compound 1, machaeriol A] | 10.7 | 1.8 | 12 | > 50 | 8.5 | 52.9 | – | 8.2 | 8.5 | 7 | insignificant affinity; also recorded: did not show any affinity | 24.4 | 14 | 13.7 | 11.9 | – | 11 | 18.4 | – | – | – |
| C[C@@H]1C[C@@H]2c3c(O)cc(-c4cc5ccccc5o4)cc3OC(C)(C)[C@H]2C[C@H]1O [compound 4, machaeriol D] | 20 | 28.2 | 21 | > 50 | 18 | 16.8 | – | 21 | 25 | 25 | – | 81.5 | 22 | 11 | 20 | – | 24 | 4.5 | > 1.3 | – | Affinity for CB1 receptor (in words) ([18]; receptor displacement assay): little or no affinity |
| C=C(C)[C@H]1CC[C@H](C)C[C@@H]1c1c(O)cc(/C=C/c2ccccc2)cc1O [compound 5, machaeridiol A] | 8.1 | 43.3 | 11 | > 50 | 9.5 | 45.6 | inactive | 11 | 11.8 | > 50 | – | 65.4 | 10.5 | 4.5 | 3.5 | > 50 | 10 | 7.8 | > 1.77 | 9.41 ± 1.02 | IC50 at 48 h [19]: > 50 µg/mL; Ki [6]: 16.8 ± 3.31 µM; solubility [20]: < 33.3 µM; IC50 at 48 h [21]: > 50 µg/mL |
| C=C(C)[C@H]1CC[C@H](C)C[C@@H]1c1c(O)cc(-c2cc3ccccc3o2)cc1O [compound 7, machaeridiol C] | 2 | 26.6 | 6.7 | > 50 | 6.8 | 31.7 | inactive | 8.8 | 7.2 | 12 | – | 57.9 | 11.2 | 2.5 | > 50 | > 50 | 8.7 | – | > 1.11 | 12.2 ± 1.19 | Δ pKi [2]: 4.91; IC50 at 48 h [19]: > 50 µg/mL; Ki [6]: 4.01 ± 0.65 µM; solubility [20]: < 33.3 µM; IC50 at 48 h [21]: 47 µg/mL (≈ 130 µM) |
